The record followed here is patent US20260374818A1, “CATIONIC PEPTIDES WITH BROAD SPECTRUM ACTIVITY” (priority 2023, published 2026).

Where a SMILES comes first, the peptide text is derived from it. [ ]: non-standard residue; d: D form.

Test [1] concerns S. epidermidis biofilms on Ker-CT epidermal skin. The test is described as follows: Skin organoid biofilm model, AB103-D loaded Medvance foam dressing, S. epidermidis. The format is cell-based, Staphylococcus epidermidis.
For test [2], the system named is A. baumanii biofilms on Ker-CT epidermal skin. In words: Skin organoid biofilm model, AB103-D loaded Medvance foam dressing, A. baumanii. The format is cell-based, Acinetobacter baumannii.
In test [3] the test system is MRSA USA 300 LAC biofilms. In words: Checkerboard biofilm synergy of AB103-D with antimicrobials, MRSA. In kind it is cell-based, methicillin resistant Staphylococcus aureus.
Test [4] deals with P. aeruginosa PAO1 planktonic cells. In words: Planktonic inhibition by AB103-D single substitution variants, P. aeruginosa. Conditions: Pseudomonas; read-out: IC50 of AB103-D alone, planktonic. The format is cell-based. The text has this:
A series of single amino acid substitution variants of the AB103-D peptide were generated on cellulose arrays using SPOT-synthesis technology [Hilpert, K., Winkler, D. F., & Hancock, R. E. W. (2007). Peptide arrays on cellulose support: SPOT synthesis, a time and cost efficient method for synthesis of large numbers of peptides in a parallel and addressable fashion. Nature Protocols, 2(6), 1333-1349; Frank, R. (2002). The SPOT-synthesis technique. Synthetic peptide arrays on membrane supports-principles and applications. J Immunol Methods, 267(1), 13-26] to test for enhanced Gram-negative activity against P. aeruginosa and determine which residues contribute to the antibiofilm effects of this peptide. 96 AB103-D variants were generated by replacing each residue in the parent peptide with one of D-Arg, D-Lys, D-Glu, Gly, D-Ala, D-Ile, D-Leu, D-Val and D-Trp. The biofilm inhibitory activity of all 96 AB103-D variants was subsequently assessed against MRSA USA300 LAC or P. aeruginosa PAO1 in a microtitre plate assay [Haney, E. F., Trimble, M. J., & Hancock, R. E. W. (2021). Microtiter plate assays to assess antibiofilm activity against bacteria. Nature Protocols, 16(5), 2615-2632]. […].

Test [5] has as its system PAO1 biofilms on human skin organoid. In words: Skin organoid biofilm infection model, peptide solution, PAO1. The format is cell-based, Pseudomonas aeruginosa. Conditions: peptide solution 4 hrs (FIG. 3B).

On to `CC[C@@H](C)[C@@H](NC(=O)[C@@H](C)NC(=O)[C@@H](CCCNC(=N)N)NC(=O)[C@@H](Cc1c[nH]c2ccccc12)NC(=O)[C@@H](CCC(N)=O)NC(=O)[C@H](NC(=O)[C@@H](CCCNC(=N)N)NC(=O)[C@H](NC(=O)[C@H](NC(=O)[C@@H](CCCNC(=N)N)NC(=O)[C@H](NC(=O)[C@H](N)CCCNC(=N)N)C(C)C)C(C)C)[C@H](C)CC)C(C)C)C(N)=O` [AB103-D, rvrvirvqwrai-NH2] (H-[dR][dV][dR][dV][dI][dR][dV][dQ][dW][dR][dA][dI]-NH2), for which the “Bacterial burden on organoid skin, loaded bandage” value in test [1] and in test [2] was “effectively reduce the bacterial burden” each time. Also, the “Synergy with several other antimicrobials” value in test [3] (MRSA USA 300 biofilms) is reported as “proved synergistic with several other antimicrobials”. Moreover, in test [3] (MRSA, 10% TSB + 0.1% glucose, at least 70% reduction of biofilm biomass), the “MBIC of AB103-D alone” value was determined as 1 µg/mL. Moreover, in test [4], the IC50 stood at 16 µM. For the same compound, in test [5], the “Antibiofilm activity on skin organoid” value is “excellent antibiofilm activity”.
